Laboratory results: patent publication US20150174144A1, “TETRACYCLINE COMPOUNDS FOR TREATING NEURODEGENERATIVE DISORDERS” (PARATEK PHARMACEUTICALS, INC., priority 2012, published 2015)
In brackets after ≈: the same amount, converted by molar mass. Several values for one entry are separate records, joined by “and”; a condition that tells them apart may be missing. Equal values may be shown once. Read-outs that look alike come from different tables or passages of the source. Marks after values point to notes of the source that are not given here.

Legend:
[1] = tested on: animal models of MS and neuroprotection; assay: Accepted animal models of MS and neuroprotection (Table 2); parameters: concentration or dose not given beside the values; conditions: in vivo
E. coli = assay: Antibacterial activity, E. coli MIC; assay type: cell-based; conditions: Escherichia coli; Table 8
[2] = tested on: cuprizone-induced demyelination; assay: Mouse model of cuprizone-induced demyelination; assay type: in vivo, C57BL/6 female mice
Procedure: Compound 1 was tested in the mouse model of cuprizone-induced demyelination to determine the protective effects of Compound 1. The general protocol for cuprizone model demyelination is as follows:
C57BL/6 female mice at 7-8 weeks old were fed a cuprizone diet (7012, 0.2% cuprizone mixed in standard pellet rodent chow purchased from Harlan Teklad, Indianapolis, Ind., USA) for 5 weeks. The cuprizone food was changed every two days and given ad libitum along with water. An additional group of mice was fed normal chow for 5 weeks to serve as a no cuprizone control.
Animals were dosed intraperitoneally (i.p.) once daily based on body weight with Compound 1 (25 mg/kg, 10 mL/kg in saline), minocycline positive control (25 mg/kg, 10 mL/kg in saline) or saline sham starting on the day of cuprizone diet initiation (day 0) and continuing until day of harvest.
At 3, 4, and 5 weeks of cuprizone feeding, ten mice from each group were euthanized by CO2 asphyxiation and decapitation and the brains were harvested and fixed in 10% buffered neutral formalin.
Postfixed brains were paraffin embedded and 8-12 μm serial sections of the brain between the septostriatal and rostral diencephalon were prepared for luxol fast blue periodic acid-Schiff base (LFB-PAS) staining (demyelination). Both medial and lateral demyelination of the corpus callosum was determined.
Demyelination scores for the medial corpus callosum ranged from 0 to 4 (0=fully myelinated, 1=<⅓ demyelination in the center of the medial corpus callosum, 2=<⅔ demyelination in the center of the corpus callosum, 3=no myelin in the center of corpus callosum and 4=demyelination extending to the arch of the medial corpus callosum). Demyelination in the lateral corpus callosum was scored on weeks 4 and 5 and ranged from 0 to 3 (0=normal myelination and 3=complete demyelination). Demyelination was scored 2-3 times for at least 2 brain sections.
Axon loss in the medial corpus callosum was determined on additional serial sections of brain using Bielschowsky silver staining. Axon loss in the medial corpus callosum was scored from 0-4 (0=normal number of axons to 4=complete axon loss) at 3, 4 and 5 weeks. Slides were scored by two technicians who were blinded to the treatment groups.

[3] = tested on: LPS-induced TNFα production by RAW 264.7 macrophages; assay: TNFα production assay, LPS-activated RAW 264.7 macrophages; assay type: cell-based; conditions: Mus musculus, RAW264.7
Procedure: (§1) Compound 1 was tested to determine specific anti-inflammatory characteristics. In vitro assays to assess the inhibition of substrate cleavage by matrix metalloproteinase 9 (MMP-9) and the inhibition of TNFα production by lipopolysaccharide (LPS)-activated macrophages were performed. MMP-9 activity was determined by fluorescence after incubation of recombinant MMP-9 with fluorescein-conjugated DQ gelatin for 90 min. TNFα production was determined by incubation of 10 ng/ml LPS with RAW264.7 macrophage cells for 24 h, followed by quantitation of TNFα in culture supernatant by ELISA.
(§2) The RAW 264.7 mouse macrophage cell line was grown to confluence in DMEM medium containing 10% fetal bovine serum (FBS). Cells were harvested into single-cell suspensions, seeded into 96-well plates at 1-2×10^5 cells/well (200 μL volume) and incubated (5% CO2, 37° C.) overnight. Compounds were added to the cells at final concentrations ranging from 50 to 1 μM and pre-incubated for 30 min. Lipopolysaccharide (LPS) was added to the cells at a final concentration of 10 ng/ml. After incubation for 20 hr, culture supernatants were harvested and transferred to a new 96-well plate. Levels of LPS-induced TNFα in the supernatants were quantified by ELISA (R & D Systems) with supernatants from unstimulated cells serving as a negative control.

[4] = target: T1, recombinant human matrix metalloproteinase-9 (MMP-9) (Homo sapiens, UniProt P14780); assay: MMP-9 enzyme activity assay (cell-free); assay type: biochemical
T1 construct: an aliquot of active recombinant human matrix metalloproteinase-9 (MMP-9)(CalBioChem) was added; purchased CalBioChem
T1 sequence (P14780 107-707 limits assumed): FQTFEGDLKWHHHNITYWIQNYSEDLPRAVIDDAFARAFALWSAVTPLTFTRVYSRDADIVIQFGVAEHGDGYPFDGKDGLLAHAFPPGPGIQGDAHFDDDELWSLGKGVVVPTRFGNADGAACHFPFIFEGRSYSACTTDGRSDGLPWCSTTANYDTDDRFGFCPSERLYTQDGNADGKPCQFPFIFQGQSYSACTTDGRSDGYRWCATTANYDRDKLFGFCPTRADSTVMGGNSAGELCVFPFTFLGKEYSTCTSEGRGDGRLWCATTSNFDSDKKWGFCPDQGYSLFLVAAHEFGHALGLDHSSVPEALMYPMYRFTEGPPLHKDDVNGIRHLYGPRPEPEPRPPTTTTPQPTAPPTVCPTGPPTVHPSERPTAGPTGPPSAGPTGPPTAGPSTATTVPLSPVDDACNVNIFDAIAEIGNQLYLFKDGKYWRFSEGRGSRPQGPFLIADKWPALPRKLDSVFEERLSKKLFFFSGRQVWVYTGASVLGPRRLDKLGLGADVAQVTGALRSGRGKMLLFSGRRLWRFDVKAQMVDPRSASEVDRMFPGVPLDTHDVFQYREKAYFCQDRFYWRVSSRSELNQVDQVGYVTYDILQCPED
Procedure: as §1
This assay was designed to measure the degradation of substrate by purified enzyme. To a solution containing 2.5 μg/ml fluorescein-conjugated DQ gelatin (Invitrogen) in buffer (50 mM Tris-HCl, 150 mM NaCl, 5 mM CaCl2, 0.2 mM sodium azide, pH 7.6), tetracycline compounds were added at final concentrations ranging from 100 to 1 μM. Subsequently, an aliquot of active recombinant human matrix metalloproteinase-9 (MMP-9)(CalBioChem) was added to a final concentration of 0.05 μg/ml. The total volume of the reaction mixture was 200 μL and samples were contained in 96-well black plates (Corning). The mixture was incubated at room temperature in the dark for 85 min, after which the fluorescence was measured using a microplate reader. Samples containing no MMP-9 enzyme were used as negative controls and samples with enzyme and without compound were positive controls.

[5] = tested on: LPS-induced production of NO by J774A.1 macrophages; assay: NO production assay, LPS-activated J774A.1 macrophages; assay type: cell-based; conditions: Mus musculus, J774.A1; 10 ng/ml LPS, 20 hr
Procedure: as §2, with “J774A.1” for “RAW 264.7”, “suspensions (by incubation on ice and agitation),” for “suspensions,”, “1×10^5” for “1-2×10^5”, “1 hr.” for “30 min.”, “NO” for “TNFα”, “Greiss reagent (Active Motif)” for “ELISA (R & D Systems)”

[6] = Lateral Corpus Callosum, Week 4, 25 mg/kg/d i.p.
[7] = Lateral Corpus Callosum, Week 5, 25 mg/kg/d i.p.
[8] = Medial Corpus Callosum, Week 3, 25 mg/kg/d i.p.
[9] = Medial Corpus Callosum, Week 4, 25 mg/kg/d i.p.
[10] = Medial Corpus Callosum, Week 5, 25 mg/kg/d i.p.
[11] = 10 ng/ml LPS, 20 hr, read-out: TNFα Production (RAW264.7) IC50
[12] = Table 4, unit inferred, read-out: TNFα production (RAW264.7)
[13] = Table 4, unit inferred, read-out: MMP-9 activity (cell-free)
[14] = Table 11, read-out: MMP-9 Activity (cell-free) IC50

Compound | % Inhibition Axon Loss [1] [%] | % Inhibition Clinical Score [1] [%] | % Inhibition Demyelination [1] [%] | % Inhibition Inflammation [1] [%] | MIC (E. coli) [µg/mL] | % Inhibition Demyelination [2, 6] | % Inhibition Demyelination ([2]; Lateral Corpus Callosum, Week 4, 25 mg/kg/d i.p., listed as minocycline) [%] | % Inhibition Demyelination [2, 7] [%] | % Inhibition Axon Loss [2, 8] | % Inhibition Demyelination [2, 8] [%] | % Inhibition Axon Loss [2, 9] [%] | % Inhibition Demyelination [2, 9] [%] | % Inhibition Axon Loss [2, 10] [%] | % Inhibition Demyelination [2, 10] [%] | IC50 [3, 11] [µM] | IC50 [3, 12] [µM] | IC50 [4, 13] [µM] | IC50 [4, 14] [µM] | IC50 [5] [µM]
CN(C)c1ccc(O)c2c1C[C@H]1C[C@H]3[C@H](N(C)C)C(O)=C(C(N)=O)C(=O)[C@@]3(O)C(O)=C1C2=O [Minocycline, minocycline, reference compound] | 38 | 40 | 34 | 43 | 1 (≈ 2.19 µM) | 63* % | 63 | 25 | 29% | 31 | 30 | 17 | −10 | 12 | 47 | 47 | 43.2 | 43.2 | 46 ± 2.1
CCc1cc(N(C)C)c2c(c1O)C(=O)C1=C(O)[C@]3(O)C(=O)C(C(N)=O)=C(O)[C@@H](N(C)C)[C@@H]3C[C@@H]1C2 [Compound 1] | 70 | 65 | 69 | 74 | > 64 | 62% |  | 29 | 62% and 66* % | 70 | 41 | 13 | 3 | −11 | 10.9 ± 1.6 | 10.9 ± 1.6 | 29 | 32.7 | 30
